From PMC8175350, “Drug repurposing screens identify chemical entities for the development of COVID-19 interventions” (Nature Communications, 2021) come the findings set out here.

Where two headings read alike, the source gives them in different places.

For series [1], the system named is HeLa-ACE2 cells. Nature of the series: cells. To be noted: Homo sapiens, HeLa-ACE2, read-out: HeLa-ACE2 cell count EC50 GeoMean, detail block.
The subject of series [2] is SARS-CoV-2. Put plainly: microbe, parasite or virus in culture. It is filed as cell-based. Conditions: for Emax: Severe acute respiratory syndrome coronavirus 2, HeLa-ACE2, 10 h, curve plateau at infinite concentration, read-out: HeLa-ACE2 TOA CoV-2 Sinf Average; for EC50: Severe acute respiratory syndrome coronavirus 2, HeLa-ACE2, detail block, read-out: HeLa-ACE2 TOA CoV-2 EC50 GeoMean; for TOA:HeLa-ACE2 EC50 Ratio: TOA EC50 / HeLa-ACE2 SARS-CoV-2 EC50.

Series [3] has as its system SARS-CoV-2. Nature of the series: microbe, parasite or virus in culture. It is filed as cell-based. To be noted: for EC50: Severe acute respiratory syndrome coronavirus 2, Calu-3, detail block, read-out: Calu-3 CoV-2 EC50 GeoMean; for Emax: Severe acute respiratory syndrome coronavirus 2, Calu-3, 48 h, curve plateau at infinite concentration, read-out: Calu-3 CoV-2 Sinf Average.

Series [4] has as its system Calu-3 cells. Nature of the series: cells. Conditions: Homo sapiens; for EC50: Calu-3, read-out: Calu-3 cell count EC50 GeoMean, detail block; for Emax: Calu-3, 48 h, read-out: Calu-3 cell count Sinf Average.
The test system of another series is HEK293T. To be noted: human.
The subject of series [5] is HeLa-ACE2 cells. Put plainly: cells. It is filed as cell-based, human. To be noted: Homo sapiens, HeLa-ACE2; read-out: HeLa-ACE2 TOA cell count EC50 GeoMean.
Series [6] deals with Calu-3 cells. Conditions: for Calu-3 uninfected cytotoxicity Sinf Average: human, 48 h.
Series [7] deals with SARS-CoV-2. Put plainly: microbe, parasite or virus in culture. In kind it is cell-based. Conditions: for Emax: Severe acute respiratory syndrome coronavirus 2, HeLa-ACE2, 24 h, curve plateau at infinite concentration, read-out: HeLa-ACE2 CoV-2 Sinf Average; for EC50: Severe acute respiratory syndrome coronavirus 2, HeLa-ACE2, detail block, read-out: HeLa-ACE2 CoV-2 EC50 GeoMean.

A further series in a line: in vitro. Conditions: human, Calu-3 uninfected cytotoxicity CC50 GeoMean.
In another series the test system is HepG2. Conditions: human.
Series [8] concerns HeLa-ACE2 cells. Nature of the series: Uninfected HeLa-ACE2 24 h live/dead cytotoxicity counter screen. In kind it is cell-based, human. Conditions: curve plateau at infinite concentration.
Assay in series [9]: as above
Conditions: human, uninfected HeLa-ACE2 cells, detail block; read-out: HeLa-ACE2 uninfected cytotoxicity CC50 GeoMean. It is filed as cell-based, human.

Series [10] relates to SARS-CoV-2. It is filed as cell-based. To be noted: combination with remdesivir.
Where [11] appears, read: selectivity index, uninfected HeLa-ACE2 CC50 / SARS-CoV-2 EC50.

Broadly, the EC50 is the midpoint of the concentration-response curve. Usually CC50 stands for the concentration that lowers cell viability or growth by half. Regarding `COc1ccc2cc1Oc1ccc(cc1)C[C@H]1c3c(cc4c(c3Oc3cc5c(cc3OC)CCN(C)[C@@H]5C2)OCO4)CCN1C` [Cepharanthine], the EC50 in the series with HeLa-ACE2 cells [1] is more than 9.59 µM. In the series on SARS-CoV-2 [2], the Emax worked out at 100%, the EC50 was more than 9.5 µM and the “TOA:HeLa-ACE2 EC50 Ratio” value was found to be 9.613. In the series on SARS-CoV-2 [3], the “Calu-3 SI” value was determined as 2.79 and the EC50 is more than 9.98 µM. For the same compound, in the series on Calu-3 cells [4], the EC50 is more than 9.98 µM. In addition, in the series with HEK293T (72 h), the “HEK293T 72-hour cytotoxicty Sinf Average” value is given as -103%. In addition, in the series with HeLa-ACE2 cells [5], the EC50 is more than 9.59 µM. In the series on Calu-3 cells [6], the “uninfected Calu-3 CC50” value is recorded as > 27.816 ×÷ 1.096 (n=3) μM and the “Calu-3 uninfected cytotoxicity Sinf Average” value is on record as -100%. Also, in the series with SARS-CoV-2 [7], the “HeLa-ACE2 SI” value is listed as more than 25.76, the Emax turned out to be 98% and the EC50 was 0.988 µM. Further, the CC50 at 48 h in “in vitro” was more than 27.8 µM. Besides, the “HepG2 72-hour cytotoxicity Sinf Average” value in the series on HepG2 (72 h) is on record as -100%. Also, the “HeLa-ACE2 uninfected cytotoxicity Sinf Average” value in the series on HeLa-ACE2 cells [8] is recorded as -100%. The CC50 at 24 h in series [9] is more than 25.4 µM.

On to `O=C(CCCN1CCN(c2ccc(F)cc2)CC1)NC1c2ccccc2CSc2ccccc21` (stereo not shown) [Monatepil], for which the EC50 is more than 9.6 µM in the series with HeLa-ACE2 cells [1]; 5.71 µM in the series with SARS-CoV-2 [2]; more than 9.98 µM with SARS-CoV-2 [3]; more than 9.98 µM in the series with Calu-3 cells [4]; more than 9.61 µM in the series with HeLa-ACE2 cells [5]; more than 7.79 µM with SARS-CoV-2 [7]. Moreover, the Emax in the series on SARS-CoV-2 [2] is 100%; with SARS-CoV-2 [3], 100%; in the series with Calu-3 cells [4], -100%; in the series on SARS-CoV-2 [7] it was 100%. In the series on SARS-CoV-2 [2], the “TOA:HeLa-ACE2 EC50 Ratio” value is 0.732. The “HEK293T 72-hour cytotoxicty Sinf Average” value in the series with HEK293T (72 h) was -46%. In the series on Calu-3 cells [6], the “uninfected Calu-3 CC50” value was > 29.9 ×÷ 1.002 (n=4) μM. In addition, the “Calu-3 uninfected cytotoxicity Sinf Average” value with Calu-3 cells [6] is -100%. In the series with SARS-CoV-2 [7] (setting [11]), the “HeLa-ACE2 SI” value is more than 5.01. In the series “in vitro”, the CC50 at 48 h was more than 29.9 µM. Besides, the “HeLa-ACE2 uninfected cytotoxicity Sinf Average” value in the series with HeLa-ACE2 cells [8] was -100%. Moreover, the CC50 at 24 h in series [9] was more than 39 µM.

For `CCN(CC)CCCC(C)Nc1ccnc2cc(Cl)ccc12` (stereo not shown) [Chloroquine, DualTPharma, Chloroquine], the EC50 in the series with HeLa-ACE2 cells [1] was more than 9.59 µM; in the series with SARS-CoV-2 [2], more than 9.59 µM; in the series with SARS-CoV-2 [3], more than 9.85 µM; in the series on Calu-3 cells [4], more than 9.85 µM; with HeLa-ACE2 cells [5] it was more than 9.59 µM; in the series with SARS-CoV-2 [7], 0.9 µM. Moreover, the “HEK293T 72-hour cytotoxicty Sinf Average” value in the series on HEK293T is on record as -100%. Also, the Emax in the series on SARS-CoV-2 [7] was 107%. Besides, the “HepG2 72-hour cytotoxicity Sinf Average” value with HepG2 was -100%. The “HeLa-ACE2 uninfected cytotoxicity Sinf Average” value with HeLa-ACE2 cells [8] was -100%. In addition, in series [9], the CC50 at 24 h was more than 39.8 µM.

With `CN1CCN(c2ccc(C(=O)NCc3cnc(C#N)nc3NCC(C)(C)C)cc2)CC1` [Dutacatib], the EC50 in the series with HeLa-ACE2 cells [1] was more than 9.59 µM; in the series with SARS-CoV-2 [2] it was more than 9.36 µM; with SARS-CoV-2 [3], more than 9.98 µM; in the series with Calu-3 cells [4] it was more than 9.98 µM; in the series with HeLa-ACE2 cells [5], more than 9.59 µM; with SARS-CoV-2 [7], 2.69 µM. In addition, the Emax in the series on SARS-CoV-2 [2] worked out at 100%; in the series with SARS-CoV-2 [3] it was 96%; in the series with Calu-3 cells [4] it was 100%; with SARS-CoV-2 [7], 101%. The “TOA:HeLa-ACE2 EC50 Ratio” value with SARS-CoV-2 [2] was 3.480. Also, the “HEK293T 72-hour cytotoxicty Sinf Average” value in the series on HEK293T (72 h) is -100%. Further, the “uninfected Calu-3 CC50” value in the series on Calu-3 cells [6] is recorded as > 29.867 ×÷ 1.001 (n=3) μM. The “Calu-3 uninfected cytotoxicity Sinf Average” value in the series with Calu-3 cells [6] was -100%. The “HeLa-ACE2 SI” value in the series on SARS-CoV-2 [7] (setting [11]) is recorded as more than 13.43. In the series on SARS-CoV-2 [10], the “HeLa-ACE2 synergy score with remdesivi” value is given as 2.955 δ. The 50% cytotoxic concentration (CC50) at 48 h in the series “in vitro” is more than 29.9 µM. In the series on HepG2 (72 h), the “HepG2 72-hour cytotoxicity Sinf Average” value is -100%. In addition, in the series with HeLa-ACE2 cells [8], the “HeLa-ACE2 uninfected cytotoxicity Sinf Average” value is listed as -100%. In [9], the CC50 at 24 h was more than 36.1 µM.
